Measured values as given in patent publication US11427586B2, “1,2,4-oxadiazole derivatives as liver X receptor agonists” (NOVARTIS AG, priority 2019, dated 2022).
Where two headings read alike, the source gives them in different places.

What was measured:
[1] = test system: SZ95 sebocytes; assay: Sentinel Lipid Assay (SLA), desaturation index in SZ95 sebocytes; type: cell-based; conditions: Homo sapiens, 72 h; for EC50: desaturation index, lowest dose used 4.6 nM, read-out: SLA EC50
Outline: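 SZ95 human sebocytes on fibronectin-coated plates, dosed 72 h at 37 °C with 1:3 dilutions from 10 μM; lipids extracted with deuterated triglyceride internal standards and quantified by LC-MS/MS (MRM) as 11 sentinel lipids. Desaturation index from elastic-net coefficients, normalized to DMSO; Amax relative to a reference LXR agonist.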

[2] = test system: SCD1; assay: Measurement of SCD1 expression in SZ95-SCD1-HiBit cells (HiBiT assay); type: cell-based; conditions: Homo sapiens, 48 h; for EC50: SCD1 protein production, luminescence, initial dilution 1:3 in DMSO, read-out: HiBit EC50
[3] = normalized Amax based on the reference compound Amax of 100%, read-out: SLA Normalized Amax
[4] = SZ95 cells, compared to reference compound, read-out: SLA Amax
[5] = normalized Amax based on the reference compound Amax of 100%, read-out: HiBit Normalized Amax
[6] = SZ95-SCD1-HiBit cells, compared to reference compound, read-out: HiBit Amax

Structure (SMILES)	EC50 ([1]; SZ95 cells) [nM]	EC50 ([2]; SZ95-SCD1-HiBit cells) [nM]	Emax [1, 3] [%]	Emax [1, 4] [%]	Emax [2, 5] [%]	Emax [2, 6] [%]
CC(C)CS(=O)(=O)c1ccccc1Oc1ccc(-c2noc(CN3C(=O)N(CCN4CCOCC4)C4(CCC4)C3=O)n2)cc1C(F)(F)F [Compound 45, 7-((3-(4-(2-(isobutylsulfonyl)phenoxy)-3-(trifluoromethyl)phenyl)-1,2,4-oxadiazol-5-yl)methyl)-5-(2-morpholinoethyl)-5,7-diazaspiro[3.4]octane-6,8-dione]	≤ 4.6	2.52	162	155	94.2	89.6
O=C1N(Cc2nc(-c3ccc(Oc4ccccc4S(=O)(=O)CC(F)(F)F)c(C(F)(F)F)c3)no2)C(=O)C2(CCN(C3CCC3)CC2)N1CCC1CCOCC1 [Compound 48, 8-cyclobutyl-1-(2-(tetrahydro-2H-pyran-4-yl)ethyl)-3-((3-(4-(2-((2,2,2-trifluoroethyl)sulfonyl)phenoxy)-3-(trifluoromethyl)phenyl)-1,2,4-oxadiazol-5-yl)methyl)-1,3,8-triazaspiro[4.5]decane-2,4-dione]	≤ 4.6	0.053	125	120	93.5	88.9
CC(C)CS(=O)(=O)c1ccccc1Oc1ccc(-c2noc(CN3C(=O)N(CCN4CCOCC4)C(C)(C)C3=O)n2)cc1Cl [Compound 49, 3-((3-(3-chloro-4-(2-(isobutylsulfonyl)phenoxy)phenyl)-1,2,4-oxadiazol-5-yl)methyl)-5,5-dimethyl-1-(2-morpholinoethyl)imidazolidine-2,4-dione]	40.6	11.9	114	110	74.6	70.9
CC(O)CS(=O)(=O)c1ccccc1Oc1ccc(-c2noc(CN3C(=O)N(CCN4CCOCC4)C(C)(C)C3=O)n2)cc1C(F)(F)F (stereo not drawn) [Compound 52, 3-((3-(4-(2-((2-hydroxypropyl)sulfonyl)phenoxy)-3-(trifluoromethyl)phenyl)-1,2,4-oxadiazol-5-yl)methyl)-5,5-dimethyl-1-(2-morpholinoethyl)imidazolidine-2,4-dione]	≤ 4.6	2.91	119	114	79.5	75.6
COCCS(=O)(=O)c1ccccc1Oc1ccc(-c2noc(CN3C(=O)N(CC4CC4)C(C)(C)C3=O)n2)cc1C(F)(F)F [Compound 54, 1-(cyclopropylmethyl)-3-((3-(4-(2-((2-methoxyethyl)sulfonyl)phenoxy)-3-(trifluoromethyl)phenyl)-1,2,4-oxadiazol-5-yl)methyl)-5,5-dimethylimidazolidine-2,4-dione]	≤ 4.6	3.86	157	151	84.9	80.7
CC1(C)C(=O)N(Cc2nc(-c3ccc(Oc4ccccc4S(C)(=O)=O)c(C(F)(F)F)c3)no2)C(=O)N1CCN1CCOCC1 [Compound 55, 5,5-dimethyl-3-((3-(4-(2-(methylsulfonyl)phenoxy)-3-(trifluoromethyl)phenyl)-1,2,4-oxadiazol-5-yl)methyl)-1-(2-morpholinoethyl)imidazolidine-2,4-dione]	≤ 4.6	4.43	161	154	91.6	87.1
O=C1N(Cc2nc(-c3ccc(Oc4ccccc4S(=O)(=O)CC4CCCO4)c(C(F)(F)F)c3)no2)C(=O)C2(CCOCC2)N1CCN1CCOCC1 (stereo not drawn) [Compound 56, 1-(2-morpholinoethyl)-3-((3-(4-(2-(((tetrahydrofuran-2-yl)methyl)sulfonyl)phenoxy)-3-(trifluoromethyl)phenyl)-1,2,4-oxadiazol-5-yl)methyl)-8-oxa-1,3-diazaspiro[4.5]decane-2,4-dione]	≤ 4.6	1.01	187	180	76.6	72.8
COCCS(=O)(=O)c1ccccc1Oc1ccc(-c2noc(CN3C(=O)N(CCN4CCOCC4)C(C)(C)C3=O)n2)cc1C(F)(F)F [Compound 58, 3-((3-(4-(2-((2-methoxyethyl)sulfonyl)phenoxy)-3-(trifluoromethyl)phenyl)-1,2,4-oxadiazol-5-yl)methyl)-5,5-dimethyl-1-(2-morpholinoethyl)imidazolidine-2,4-dione]	≤ 4.6	0.281	167	161	107	102

Continued, in another order:

EC50 ([1]; SZ95 cells) [nM]	EC50 ([2]; SZ95-SCD1-HiBit cells) [nM]	Structure (SMILES)	Emax [1, 3] [%]	Emax [1, 4] [%]	Emax [2, 5] [%]	Emax [2, 6] [%]
≤ 4.6	1.15	CC(CS(=O)(=O)c1ccccc1Oc1ccc(-c2noc(CN3C(=O)N(CCN4CCOCC4)C(C)(C)C3=O)n2)cc1C(F)(F)F)N1CCCC1 (stereo not drawn) [Compound 43, 5,5-dimethyl-1-(2-morpholinoethyl)-3-((3-(4-(2-((2-(pyrrolidin-1-yl)propyl)sulfonyl)phenoxy)-3-(trifluoromethyl)phenyl)-1,2,4-oxadiazol-5-yl)methyl)imidazolidine-2,4-dione]	147	141	84.1	80
≤ 4.6	6.65	CC(C)CS(=O)(=O)c1ccccc1Oc1ccc(-c2noc(CN3C(=O)CN(CCN4CCOCC4)C3=O)n2)cc1C(F)(F)F [Compound 44, 3-((3-(4-(2-(isobutylsulfonyl)phenoxy)-3-(trifluoromethyl)phenyl)-1,2,4-oxadiazol-5-yl)methyl)-1-(2-morpholinoethyl)imidazolidine-2,4-dione]	86.4	82.9	77	73.2
≤ 4.6	6.06	CC(C)CS(=O)(=O)c1ccccc1Oc1ccc(-c2noc(CN3C(=O)N(CCN4CCOCC4)C(C)(CO)C3=O)n2)cc1C(F)(F)F (stereo not drawn) [Compound 46, 5-(hydroxymethyl)-3-((3-(4-(2-(isobutylsulfonyl)phenoxy)-3-(trifluoromethyl)phenyl)-1,2,4-oxadiazol-5-yl)methyl)-5-methyl-1-(2-morpholinoethyl)imidazolidine-2,4-dione]	170	163	98	93.2
≤ 4.6	0.728	O=C1N(Cc2nc(-c3ccc(Oc4ccccc4S(=O)(=O)CC(F)(F)F)c(C(F)(F)F)c3)no2)C(=O)C2(CCN(C3CCC3)CC2)N1CCN1CCOCC1 [Compound 47, 8-cyclobutyl-1-(2-morpholinoethyl)-3-((3-(4-(2-((2,2,2-trifluoroethyl)sulfonyl)phenoxy)-3-(trifluoromethyl)phenyl)-1,2,4-oxadiazol-5-yl)methyl)-1,3,8-triazaspiro[4.5]decane-2,4-dione]	147	142	80.5	76.6
23.7	29.8	CC(C)CS(=O)(=O)c1ccccc1Oc1ccc(-c2noc(CN3C(=O)N(CCCN4CCCC4)C(C)(C)C3=O)n2)cc1C(F)(F)F [Compound 50b, 3-((3-(4-(2-(isobutylsulfonyl)phenoxy)-3-(trifluoromethyl)phenyl)-1,2,4-oxadiazol-5-yl)methyl)-5,5-dimethyl-1-(3-(pyrrolidin-1-yl)propyl)imidazolidine-2,4-dione]	60.6	58.2	67.1	63.8
≤ 4.6	12.2	CC(C)CS(=O)(=O)c1ccccc1Oc1ccc(-c2noc(CN3C(=O)N(Cc4ccccn4)C(C)(C)C3=O)n2)cc1C(F)(F)F [Compound 51, 3-((3-(4-(2-(isobutylsulfonyl)phenoxy)-3-(trifluoromethyl)phenyl)-1,2,4-oxadiazol-5-yl)methyl)-5,5-dimethyl-1-(pyridin-2-ylmethyl)imidazolidine-2,4-dione]	120	116	88.7	84.4
≤ 4.6	0.264	CC1(C)C(=O)N(Cc2nc(-c3ccc(Oc4ccccc4S(=O)(=O)CC4CCCCO4)c(C(F)(F)F)c3)no2)C(=O)N1CCN1CCOCC1 (stereo not drawn) [Compound 53, 5,5-dimethyl-1-(2-morpholinoethyl)-3-((3-(4-(2-(((tetrahydro-2H-pyran-2-yl)methyl)sulfonyl)phenoxy)-3-(trifluoromethyl)phenyl)-1,2,4-oxadiazol-5-yl)methyl)imidazolidine-2,4-dione]	146	140	101	96.2
≤ 4.6	9.1	COCCN(CCOC)CCS(=O)(=O)c1ccccc1Oc1ccc(-c2noc(CN3C(=O)N(CCN4CCOCC4)C(C)(C)C3=O)n2)cc1C(F)(F)F [Compound 61, 3-((3-(4-(2-((2-(bis(2-methoxyethyl)amino)ethyl)sulfonyl)phenoxy)-3-(trifluoromethyl)phenyl)-1,2,4-oxadiazol-5-yl)methyl)-5,5-dimethyl-1-(2-morpholinoethyl)imidazolidine-2,4-dione]	178	171	78.9	75
